The values that follow are results of earlier work, collected in patent US20160354326A1, “LOCAL ANESTHETIC SOLUTION FOR DENTAL AND/OR CONTRAST MEDIA USE” (priority 2014, published 2016).

For the series the following is noted: dissolved in solution; sucrose standard = 1.

With `OC[C@@H](O)[C@@H](O)[C@H](O)[C@@H](O)CO` [Sorbitol], the “sweetness perception rating (times the sweetness of sucrose in solution)” value (“sweetness perception rating” below) was 0.6. As for `OC[C@H]1O[C@@](CO)(O[C@H]2O[C@H](CO)[C@@H](O)[C@H](O)[C@H]2O)[C@@H](O)[C@@H]1O` [Sucrose], the “sweetness perception rating” value was 1. Turning to `O=C(CO)[C@@H](O)[C@H](O)[C@H](O)CO` [fructose], the “sweetness perception rating” value is on record as 1.7.
